Data as given in PMC6911004, “Fragment-based screening identifies molecules targeting the substrate-binding ankyrin repeat domains of tankyrase” (Scientific Reports, 2019).
One block for each molecule: values may come before it. Where a SMILES comes first, the peptide text is derived from it. [ ]: non-standard residue; d: D form.

How the values were obtained:
Assay type in all cases: binding
[1] = target: T1, TNKS2 ARC4 (Homo sapiens, UniProt Q9H2K2); test: Fluorescence polarisation (FP) competition assay with Cy5-labelled TBM peptide probe; conditions: for FP competition, result in words: peptide titrated up to 1 mM; for IC50: 5 nM Cy5-RSPPDGQS probe, 5 µM TNKS2 ARC4
T1 construct: The cell was filled with TNKS2 ARC4 (488–649); His6-GST; made in house; host or cells: E. coli
T1 sequence (Q9H2K2 488-649): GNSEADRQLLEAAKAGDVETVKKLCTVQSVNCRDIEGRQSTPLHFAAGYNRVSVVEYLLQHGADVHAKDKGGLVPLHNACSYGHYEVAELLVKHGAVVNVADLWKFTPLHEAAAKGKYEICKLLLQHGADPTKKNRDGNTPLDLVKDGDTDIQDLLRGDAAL
Description: Given the anticipated impairment of cell permeability by the N-terminal TBM arginine, we investigated whether the guanidine group could be substituted. To prioritise synthesis efforts, we followed an in-silico docking approach, exploring the importance of the positive charge and hydrogen bonding interactions, linker lengths/flexibility and side chain geometry (see Supplementary Materials and Methods for details). From commercially available side chain alternatives, we identified five potential candidates for R replacements: 1H-imidazole-5-pentanoic acid, 1H-imidazole-1-pentanoic acid, 7-aminoheptanoic acid, D-arginine and L-citrulline (Supplementary Fig. 1). We next synthesised 3BP2 TBM octapeptides, incorporating the five arginine substituents at position 1, followed by fluorescence polarisation (FP) assays to assess competition of the peptides with a Cy5-labelled TBM peptide probe (Supplementary Fig. 1). We used a 16-mer TBM peptide (LPHLQRSPPDGQSFRSW, W introduced to measure A280) derived from the model substrate 3BP2, a signalling adapter protein[4], as a positive control for a competitor, and a corresponding non-binding TBM peptide bearing a glycine-to-arginine substitution at position 6[4] as a negative control. […]
Fluorescence polarisation assay
Unlabelled arginine substituent peptides were titrated up to 1 mM in the presence of 5 nM of a labelled peptide probe (Cy5-RSPPDGQS, JPT Peptide Technologies) and 5 µM TNKS2 ARC4. 3BP2 16-mer peptide was used as a positive control, and the same peptide with the glycine at position 6 mutated to arginine (G6R) was used as a negative control. Plus F ProxiPlates (PerkinElmer) were used with a 2103 Envision Multilabel plate reader (PerkinElmer), fitted with 620 nm (excitation) and 688 nm (emission) filters. Filter bandwidths were 10 nm. A Nanodrop 2000 was used for measuring protein and probe concentrations by UV absorption. TNKS2 ARC4 protein was thawed from -80 ° C, and centrifuged at 13,000 […]
Two independent experiments were performed in technical duplicate. A 2´ stock solution containing TNKS2 ARC4 protein (10 µM) and fluorescently tagged probe (10 nM) in assay buffer (25 mM HEPES-NaOH pH 7.5, 100 mM NaCl, 1 mM TCEP, 0.01% CHAPS) was prepared. A 2-fold dilution series of untagged peptide in assay buffer was made (0 – 2 mM).
Protein and peptide stock solutions were mixed 1:1. Blank samples contained assay buffer only. The plate was sealed, centrifuged for 1 min at 1000 ´ g, and then incubated in the dark for 30 min before reading. Readings were taken with 50 flashes per well, and measured in millipolarisation (mP) units. Data were exported to Microsoft Excel, and analysed in GraphPad Prism 6.0. The means of technical duplicate values were calculated for both experiments, and FP values were plotted against unlabelled peptide concentration. Curves were normalised using the overall mean maximum and minimum FP values of the control 3BP2 TBM peptide. Curves were fitted using a non-linear regression, log(inhibitor) vs. response – variable slope (four parameters) model.
Multiple sequence alignments and amino acid identity mapping
Sequences of tankyrase ARCs were aligned using ClustalX (version 2.0) 4. […]
Supplementary Figure 1. Binding of TBM peptides containing arginine substituents to TNKS2 ARC4, measured in a fluorescence polarisation (FP) competition assay. Data points are means of technical duplicates from two independent experiments. […]

[2] = target: T2, TNKS2 ARC5 (Homo sapiens, UniProt Q9H2K2); test: T2 relaxation-edited ligand-observed NMR assay; conditions: DSF hit validation; for binding to TNKS2 ARC5 by ligand-observed NMR, in words: relaxation-edited and waterLOGSY; for competition with the 3BP2 TBM peptide by relaxation-edited NMR: ARC used for competition not given
T2 construct: followed by TNKS2 ARC5 (1 μL, 100 μM stock); His6-GST; made in house; host or cells: E. coli
Description: (§1) 39 hits from the DSF screen were suitable for follow-up by ligand-observed NMR methods. We re-purchased fragments and performed T2 relaxation-edited (CPMG-edited) and waterLOGSY experiments for each fragment with TNKS2 ARC5. We explored saturation transfer difference (STD) NMR, also using TNKS2 ARC5, but the assay was not sensitive enough to produce a reliable binding signal, likely due to the relatively small size of a single ARC protein (data not shown). High ligand concentrations were required to achieve sufficient signal, which in turn could lead to false-positive hits due to non-specific binding.
Using the relaxation-edited assay, we tested each fragment in three independent measurements (Fig. 2C), unless we obtained two negative results (non-binding) in the first two experiments. […] As a negative NOE for the compound-only sample could indicate aggregation, we flagged these compounds as potentially problematic. We identified 14 fragments that bound to TNKS2 ARC5 by both relaxation-edited and waterLOGSY methods (0.78% hit rate). We next tested whether binding of these fragments occurred competitively with the 3BP2 TBM peptide, and also if they bound to TNKS2 ARC4, as competition with peptide binders at various different ARCs will be a prerequisite for an efficient substrate binding antagonist. Three fragments (1, 2, 3) bound to both TNKS2 ARC4 and ARC5 and were competitive with the TBM peptide (0.16% hit rate) (Fig. 2E). Three further fragments also bound to both ARCs, but were not TBM competitive by NMR.
(§2) Fragments were dispensed in duplicate into a 384-well plate (250 nL, 100 mM stock in DMSO). Wells were backfilled with DMSO (2.25 μL). Tankyrase ARC protein (47.5 μL in 25 mM HEPES, pH 7.5, 100 mM NaCl, 2 mM TCEP, 10% D2O; 20 μM final protein concentration in the assay) was added to the ‘protein’ samples; buffer only (47.5 μL) was added to the ‘compound-only’ samples. Solutions were transferred to 1.7 mm NMR tubes using a Gilson liquid handling system. ^1H NMR spectra were recorded, with the DMSO and water signals dampened. A relaxation spin filter was applied at 400 ms[65]. Data were processed using Bruker Topspin 3.14. Lines were broadened with LB = 3.0, and the baseline was corrected between 6.0–10.0 ppm. The average integral for all peaks between 6.0–10.0 ppm was calculated, and the difference between compound-only and compound-plus-protein samples was compared. A reduction in signal integrals of ≥15% was classified as a hit. For competitive experiments, 3BP2 16-mer peptide (100 μM) was added, and the spectra were recorded and processed as above. The variability in signal reduction in the relaxation-edited experiment was previously determined as approximately ± 10% (Liu et al., unpublished observations).

[3] = target: T1, TNKS2 ARC4; test: T2 relaxation-edited ligand-observed NMR assay; conditions: for binding to TNKS2 ARC4 by ligand-observed NMR, in words: DSF hit validation
Procedure: We next sought close structural analogues of hit fragments 3 and 5 to gain early insights into structure-activity relationships (SAR) and binding modes of hit fragments. We initially tested the analogues using both relaxation-edited and waterLOGSY NMR assays against TNKS2 ARC4 (Table 1), followed by protein-observed NMR if binding was detected in both ligand-observed NMR experiments.
as §2

[4] = target: T2, TNKS2 ARC5; test: WaterLOGSY NMR assay
Description: as §1
Using the relaxation-edited assay, we tested each fragment in three independent measurements (Fig. 2C), unless we obtained two negative results (non-binding) in the first two experiments. […] As a negative NOE for the compound-only sample could indicate aggregation, we flagged these compounds as potentially problematic. We identified 14 fragments that bound to TNKS2 ARC5 by both relaxation-edited and waterLOGSY methods (0.78% hit rate). […]
Fragments were dispensed in duplicate into a 384-well plate (250 nL, 100 mM stock in DMSO). […] Solutions were transferred to 1.7 mm NMR tubes using a Gilson liquid handling system. ^1H NMR spectra were recorded, with the DMSO signal dampened. […]

Molecule: citrulline
FP competition, result in words [1]: poor competition

Molecule: 7-aminoheptanoic acid
FP competition, result in words [1]: poor competition

Molecule: N=C(N)NCCC[C@H](N)C(=O)N[C@@H](CO)C(=O)N1CCC[C@H]1C(=O)N1CCC[C@H]1C(=O)N[C@@H](CC(=O)O)C(=O)NCC(=O)N[C@@H](CCC(N)=O)C(=O)N[C@@H](CO)C(=O)O [8-mer RSPPDGQS TBM peptide, RSPPDGQS, reference compound] (H-RSPPDGQS-OH)
IC50 [1]: 34 µM

Molecule: NC(=O)Cc1coc2ccc3ccccc3c12 [compound 4]
T2 relaxation-edited: competition with 3BP2 TBM peptide ([3]; 3BP2 16-mer peptide 100 μM): competitive

Further lines, with some results ahead:

binding to TNKS2 ARC5 by ligand-observed NMR, in words [2]: bound
competition with the 3BP2 TBM peptide by relaxation-edited NMR [2]: competitive
binding to TNKS2 ARC4 by ligand-observed NMR, in words [3]: bound
Molecule: COc1ccc2c(OC(C)=O)coc2c1 [compound 2]

IC50 [1]: 175 µM
Molecule: N=C(N)NCCC[C@@H](N)C(=O)N[C@@H](CO)C(=O)N1CCC[C@H]1C(=O)N1CCC[C@H]1C(=O)N[C@@H](CC(=O)O)C(=O)NCC(=O)N[C@@H](CCC(N)=O)C(=O)N[C@@H](CO)C(=O)O [D-arginine] (H-[dR]SPPDGQS-OH)

binding to TNKS2 ARC5 by ligand-observed NMR, in words [2]: bound
competition with the 3BP2 TBM peptide by relaxation-edited NMR [2]: competitive
binding to TNKS2 ARC4 by ligand-observed NMR, in words [3]: bound
Molecule: O=S(=O)(Nc1cccc(O)c1)c1ccc(Cl)cc1 [compound 1]
waterLOGSY [4]: negative NOE signal
